Values of other authors in paper PMC9240354, “Pharmacokinetics, Pharmacodynamics and Antiviral Efficacy of the MEK Inhibitor Zapnometinib in Animal Models and in Humans” (Frontiers in Pharmacology, 2022).

How the values were obtained:
MEK = tested on: MEK; design: method as in Yang et al., 2010; details: single application, LOX melanoma tumor xenograft model; ref Yang et al., 2010; cited from earlier work
ERK phosphorylation = tested on: ERK phosphorylation; design: method as in Gilmartin et al., 2011; details: mouse tumor xenograft model; ref Gilmartin et al., 2011; cited from earlier work

SMILES | MEK inhibition with decreasing plasma concentration (MEK) | inhibition of ERK phosphorylation in vivo (ERK phosphorylation)
CCCS(=O)(=O)Nc1ccc(F)c(C(=O)c2c[nH]c3ncc(-c4ccc(Cl)cc4)cc23)c1F [RG7204] | remained at a relatively constant value up to 8 h post dose | 
CC(=O)Nc1cccc(-n2c(=O)n(C3CC3)c(=O)c3c(Nc4ccc(I)cc4F)n(C)c(=O)c(C)c32)c1 [trametinib] |  | sustained inhibition of ERK phosphorylation
